In brackets after ≈: the same amount, converted by molar mass.
Columns and labels:
MDA-MB-231 [1] = experiment: Induction of apoptosis in human MDA-MB-231 cells assessed as viable cells at 12 uM measured after 48 hrs by Annexin V-FITC/propidium iodide staining based flow cytometry (95.8%); type: functional; details: MDA-MB-231, 48 h, read-out: Activity
CDK2/Cyclin A2 = CDK2/Cyclin A2 (Homo sapiens, UniProt P24941); set-up: species or system Sf9
[2] = Half life in human hepatocytes by LC-MS/MS analysis; type: ADME, cell-based, Hepatocyte
[3] = Cytotoxicity against human L02 cells assessed as inhibition of cell proliferation measured after 48 hrs by CCK8 assay; type: cell-based
MDA-MB-231 [4] = experiment: Cell cycle arrest in human MDA-MB-231 cells assessed as accumulation at G0/G1 phase at 4 uM measured after 48 hrs by propidium iodide staining based flow cytometry (reference value: 57.65%); type: functional
MDA-MB-231 [5] = experiment: Induction of apoptosis in human MDA-MB-231 cells assessed as viable cells at 4 uM measured after 48 hrs by Annexin V-FITC/propidium iodide staining based flow cytometry (95.8%); type: functional; details: MDA-MB-231, 48 h, read-out: Activity
MDA-MB-231 [6] = experiment: Induction of apoptosis in human MDA-MB-231 cells assessed as early apoptotic cells at 12 uM measured after 48 hrs by Annexin V-FITC/propidium iodide staining based flow cytometry (0.877%); type: functional
MDA-MB-231 [7] = experiment: Cell cycle arrest in human MDA-MB-231 cells assessed as accumulation at G2/M phase at 4 uM measured after 48 hrs by propidium iodide staining based flow cytometry (reference value: 15.9%); type: functional
[8] = Half life in Sprague-Dawley rat at 10 mg/kg, po by LC-MS/MS analysis; type: ADME, organism-based; details: in vivo
MDA-MB-231 [9] = experiment: Induction of apoptosis in human MDA-MB-231 cells assessed as necrotic cells at 12 uM measured after 48 hrs by Annexin V-FITC/propidium iodide staining based flow cytometry (0.498%); type: functional
Jurkat = experiment: Antiproliferative activity against human Jurkat cells assessed as inhibition of cell proliferation measured after 48 hrs by CCK8 assay; type: functional, cell-based
[10] = Apparent permeability in human Caco2 cells measured after 90 mins by LC-MS/MS analysis; type: ADME, cell-based; details: Caco-2
CDK9/Cyclin K = CDK9/Cyclin K (Homo sapiens, UniProt P50750); experiment: biochemical
Sequence of CDK9/Cyclin K (P50750 whole entry): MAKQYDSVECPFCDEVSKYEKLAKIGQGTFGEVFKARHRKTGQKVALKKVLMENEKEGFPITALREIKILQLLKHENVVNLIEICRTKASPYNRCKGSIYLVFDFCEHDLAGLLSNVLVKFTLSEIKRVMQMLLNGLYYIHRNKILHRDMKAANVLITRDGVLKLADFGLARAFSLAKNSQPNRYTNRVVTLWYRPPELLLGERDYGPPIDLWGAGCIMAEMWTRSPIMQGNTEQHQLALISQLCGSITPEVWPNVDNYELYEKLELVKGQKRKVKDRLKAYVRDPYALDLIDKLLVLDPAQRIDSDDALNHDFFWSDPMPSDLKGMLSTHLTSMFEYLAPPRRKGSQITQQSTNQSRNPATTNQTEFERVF
Sequence of CDK9/Cyclin K (O75909 whole entry, further chain): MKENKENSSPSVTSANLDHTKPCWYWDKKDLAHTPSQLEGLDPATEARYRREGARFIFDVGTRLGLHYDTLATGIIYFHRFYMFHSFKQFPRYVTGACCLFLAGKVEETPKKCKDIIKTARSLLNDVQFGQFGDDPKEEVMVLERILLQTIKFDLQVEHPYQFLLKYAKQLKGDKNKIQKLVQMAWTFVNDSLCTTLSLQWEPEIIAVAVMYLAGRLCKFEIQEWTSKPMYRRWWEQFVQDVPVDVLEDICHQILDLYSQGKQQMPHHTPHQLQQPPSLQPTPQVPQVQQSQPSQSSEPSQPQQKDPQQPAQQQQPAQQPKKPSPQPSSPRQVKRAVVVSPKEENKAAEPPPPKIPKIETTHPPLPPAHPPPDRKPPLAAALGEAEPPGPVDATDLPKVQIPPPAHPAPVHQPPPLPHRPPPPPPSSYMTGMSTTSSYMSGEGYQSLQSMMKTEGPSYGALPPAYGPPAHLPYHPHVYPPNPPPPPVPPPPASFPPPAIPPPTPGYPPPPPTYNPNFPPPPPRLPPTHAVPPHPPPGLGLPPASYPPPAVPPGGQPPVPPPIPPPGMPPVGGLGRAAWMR

MDA-MB-231 [11] = experiment: Cell cycle arrest in human MDA-MB-231 cells assessed as accumulation at S phase at 4 uM measured after 48 hrs by propidium iodide staining based flow cytometry (reference value: 26.45%); type: functional
[12] = Thermodynamic equilibrium solubility in normal saline by HPLC-based shake flask method; type: physicochemical; details: read-out: Therm_solubility
MDA-MB-231 [13] = experiment: Induction of apoptosis in human MDA-MB-231 cells assessed as late apoptotic cells at 4 uM measured after 48 hrs by Annexin V-FITC/propidium iodide staining based flow cytometry (2.78%); type: functional
[14] = Clearance in Sprague-Dawley rat at 10 mg/kg, po by LC-MS/MS analysis; type: ADME, organism-based; details: in vivo
[15] = Tmax in Sprague-Dawley rat at 10 mg/kg, po by LC-MS/MS analysis; type: ADME, organism-based; details: in vivo
MDA-MB-231 [16] = experiment: Antiproliferative activity against human MDA-MB-231 cells assessed as inhibition of cell proliferation measured after 48 hrs by CCK8 assay; type: functional, cell-based; details: MDA-MB-231, 48 h
[17] = Toxicity in human MDA-MB-231 cells xenografted BALB/c nu/nu mouse assessed as body weight loss at 22.5 to 90 mg/kg, po administered once daily for 3 weeks and measured at 3 days interval during compound dosing; type: organism-based; details: in vivo
MDA-MB-231 [18] = experiment: Cell cycle arrest in human MDA-MB-231 cells assessed as accumulation at G2/M phase at 12 uM measured after 48 hrs by propidium iodide staining based flow cytometry (reference value: 15.9%); type: functional
[19] = Oral bioavailability in Sprague-Dawley rat at 10 mg/kg by LC-MS/MS analysis; type: ADME, organism-based; details: in vivo
MDA-MB-231 [20] = experiment: Induction of apoptosis in human MDA-MB-231 cells assessed as necrotic cells at 4 uM measured after 48 hrs by Annexin V-FITC/propidium iodide staining based flow cytometry (0.498%); type: functional
CDK6/cyclin D3 [21] = biological target: T1, CDK6/cyclin D3 (Homo sapiens, UniProt Q00534); experiment: Binding affinity to recombinant full-length GFP-fused CDK6/His-tagged cyclin D3 (unknown origin) expressed in HEK293T cells measured after 30 mins by microscale thermophoresis method; set-up: species or system HEK-293T
T1 sequence (P30281 whole entry, the tested form may be a part): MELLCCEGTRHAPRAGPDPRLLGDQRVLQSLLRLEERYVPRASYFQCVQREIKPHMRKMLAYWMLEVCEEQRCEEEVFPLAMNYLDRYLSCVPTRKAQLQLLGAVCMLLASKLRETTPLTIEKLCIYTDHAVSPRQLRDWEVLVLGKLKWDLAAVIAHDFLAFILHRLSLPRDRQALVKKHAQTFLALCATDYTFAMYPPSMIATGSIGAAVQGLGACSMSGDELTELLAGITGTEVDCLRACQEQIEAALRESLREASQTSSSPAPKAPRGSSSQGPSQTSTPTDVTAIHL
T1 sequence (Q00534 whole entry, the tested form may be a part): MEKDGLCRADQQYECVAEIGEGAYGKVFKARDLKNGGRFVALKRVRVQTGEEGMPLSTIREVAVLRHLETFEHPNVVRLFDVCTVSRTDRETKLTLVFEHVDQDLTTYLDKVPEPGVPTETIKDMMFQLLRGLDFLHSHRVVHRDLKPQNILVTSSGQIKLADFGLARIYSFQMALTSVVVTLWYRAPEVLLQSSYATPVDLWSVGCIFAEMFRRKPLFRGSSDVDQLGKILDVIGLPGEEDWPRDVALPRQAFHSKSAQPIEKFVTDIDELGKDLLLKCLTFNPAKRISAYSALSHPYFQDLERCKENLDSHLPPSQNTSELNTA

[22] = Cmax in Sprague-Dawley rat at 10 mg/kg, po by LC-MS/MS analysis; type: ADME, organism-based; set-up: dose 10 mg/kg, route oral; details: in vivo
[23] = Clearance in mouse hepatocytes assessed per million cells by LC-MS/MS analysis; type: ADME, cell-based, Hepatocyte; details: read-out: CLH
[24] = Stability in human hepatocytes assessed as parent compound remaining after 120 mins by LC-MS/MS analysis; type: ADME, cell-based, Hepatocyte; details: read-out: Stability
CDK6/cyclin D3 [25] = biological target: T1, CDK6/cyclin D3; set-up: species or system Sf9
MCF7 = experiment: Antiproliferative activity against human MCF7 cells assessed as inhibition of cell proliferation measured after 48 hrs by CCK8 assay; type: functional, cell-based; details: MCF7, 48 h
MDA-MB-231 [26] = experiment: Induction of apoptosis in human MDA-MB-231 cells assessed as early apoptotic cells at 4 uM measured after 48 hrs by Annexin V-FITC/propidium iodide staining based flow cytometry (0.877%); type: functional
[27] = Toxicity in ICR mouse assessed as toxic reaction at 500 mg/kg, po administered as single dose measured for 7 days; type: organism-based; details: in vivo, 168 h
[28] = Stability in mouse hepatocytes assessed as parent compound remaining after 120 mins by LC-MS/MS analysis; type: ADME, cell-based, Hepatocyte; details: read-out: Stability
[29] = AUC (0 to infinity) in Sprague-Dawley rat at 10 mg/kg, po by LC-MS/MS analysis; type: ADME, organism-based; set-up: dose 10 mg/kg, time infinity, route oral; details: in vivo
MDA-MB-231 [30] = experiment: Induction of apoptosis in human MDA-MB-231 cells assessed as early apoptotic cells at 8 uM measured after 48 hrs by Annexin V-FITC/propidium iodide staining based flow cytometry (0.877%); type: functional
MDA-MB-231 [31] = experiment: Induction of apoptosis in human MDA-MB-231 cells assessed as necrotic cells at 8 uM measured after 48 hrs by Annexin V-FITC/propidium iodide staining based flow cytometry (0.498%); type: functional
MDA-MB-231 [32] = experiment: Cell cycle arrest in human MDA-MB-231 cells assessed as accumulation at G0/G1 phase at 12 uM measured after 48 hrs by propidium iodide staining based flow cytometry (reference value: 57.65%); type: functional
[33] = Toxicity in ICR mouse assessed as weight loss at 500 mg/kg, po administered as single dose measured for 7 days; type: organism-based; details: in vivo, 168 h
CDK9/cyclin T1 = CDK9/cyclin T1 (Homo sapiens, UniProt P50750); experiment: Binding affinity to recombinant full-length GFP-fused CDK9/His-tagged cyclin T1 (unknown origin) expressed in HEK293T cells measured after 30 mins by microscale thermophoresis method; set-up: species or system HEK-293T
Sequence of CDK9/cyclin T1 (O60563 whole entry, the tested form may be a part): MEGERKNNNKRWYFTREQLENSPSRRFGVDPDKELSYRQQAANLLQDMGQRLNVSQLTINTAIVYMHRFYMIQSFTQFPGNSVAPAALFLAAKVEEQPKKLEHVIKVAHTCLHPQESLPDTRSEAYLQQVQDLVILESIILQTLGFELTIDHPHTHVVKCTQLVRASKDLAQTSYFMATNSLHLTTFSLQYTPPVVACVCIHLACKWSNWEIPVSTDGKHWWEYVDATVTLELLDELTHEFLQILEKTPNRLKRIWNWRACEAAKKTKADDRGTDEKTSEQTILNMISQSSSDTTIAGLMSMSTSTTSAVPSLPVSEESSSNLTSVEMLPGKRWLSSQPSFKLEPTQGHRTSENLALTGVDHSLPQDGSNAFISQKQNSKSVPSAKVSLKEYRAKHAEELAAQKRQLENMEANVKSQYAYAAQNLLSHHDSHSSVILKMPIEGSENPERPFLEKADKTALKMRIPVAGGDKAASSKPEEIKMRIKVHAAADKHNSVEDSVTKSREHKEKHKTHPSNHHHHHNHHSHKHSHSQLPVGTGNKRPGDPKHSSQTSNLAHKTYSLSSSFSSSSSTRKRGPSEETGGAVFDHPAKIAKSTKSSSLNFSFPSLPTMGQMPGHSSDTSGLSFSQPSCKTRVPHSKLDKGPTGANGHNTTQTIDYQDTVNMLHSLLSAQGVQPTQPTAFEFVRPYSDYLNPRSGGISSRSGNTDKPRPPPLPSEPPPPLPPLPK
Sequence of CDK9/cyclin T1 (P50750 whole entry, the tested form may be a part): as the sequence (P50750 whole entry) above

MDA-MB-231 [34] = experiment: Cell cycle arrest in human MDA-MB-231 cells assessed as accumulation at G2/M phase at 8 uM measured after 48 hrs by propidium iodide staining based flow cytometry (reference value: 15.9%); type: functional
MDA-MB-231 [35] = experiment: Induction of apoptosis in human MDA-MB-231 cells assessed as late apoptotic cells at 12 uM measured after 48 hrs by Annexin V-FITC/propidium iodide staining based flow cytometry (2.78%); type: functional

CC(=O)Nc1cccc(Nc2nc(Nc3ccc(N4CCN(C)CC4)cn3)ncc2Cl)c1
viability at 12 µM (MDA-MB-231 [1]): 54.9% | IC50 (CDK2/Cyclin A2): > 10000 nM | half-life [2]: 1.53 h | GI50 at 48 h [3]: > 100000 nM | Activity (MDA-MB-231 [4]): 71.85% | viability at 4 µM (MDA-MB-231 [5]): 94.2% | Activity (MDA-MB-231 [6]): 16.4% | Activity (MDA-MB-231 [7]): 9.18% | half-life [8]: 3.24 h | Activity (MDA-MB-231 [9]): 2.24% | IC50 (Jurkat): 4010 to 8080 nM | Papp at 1.5 h [10]: 1.7 ×10⁻⁶ cm/s | IC50 (CDK9/Cyclin K): 39.5 nM | Activity (MDA-MB-231 [11]): 18.97% | solubility thermodynamic [12]: 214 µg/mL (≈ 472 µM) | Activity (MDA-MB-231 [13]): 3.15% | CL/F [14]: 180 mL/min/kg | Tmax [15]: 4 h | IC50 (MDA-MB-231 [16]): 4010 to 8080 nM | Activity [17]: Non-Toxic | Activity (MDA-MB-231 [18]): 34.27% | bioavailability [19]: 28.9% | Activity (MDA-MB-231 [20]): 0.57% | Kd (CDK6/cyclin D3 [21]): 71 nM | Cmax [22]: 101 ng/mL | hepatocyte CLint [23]: 17.7 µL/min/1e6 cells | remaining at 2 h [24]: 40.4% | IC50 (CDK6/cyclin D3 [25]): 40.5 nM | IC50 (MCF7): 4010 to 8080 nM | Activity (MDA-MB-231 [26]): 2.08% | Activity [27]: Non-Toxic | remaining at 2 h [28]: 12% | AUC(0-inf) [29]: 926 ng·h/mL | Activity (MDA-MB-231 [30]): 5.06% | Activity (MDA-MB-231 [31]): 0.766% | Activity (MDA-MB-231 [32]): 50.5% | Activity [33]: Non-Toxic | Kd (CDK9/cyclin T1): 30 nM | Activity (MDA-MB-231 [34]): 8.13% | Activity (MDA-MB-231 [35]): 26.4%

— ChEMBL document CHEMBL4602695, “Discovery and SARs of 5-Chloro-N4-phenyl-N2-(pyridin-2-yl)pyrimidine-2,4-diamine Derivatives as Oral Available and Dual CDK 6 and 9 Inhibitors with Potent Antitumor Activity” (J Med Chem, 2020)
